The source of these data is patent US20230372542A1, “COMPOSITION AND METHODS FOR MODULATING TCF4 GENE EXPESSION AND TREATING PITT HOPKINS SYNDROME” (The Regents of the University of California, priority 2020, published 2023).

Holding throughout (assay type): cell-based, human
The subject of test [1] is NPCs. Nature of the test: RT-qPCR gene expression in NPCs after Wnt signaling manipulation. Here is the method:
Real time quantitative PCR. Total RNA was extracted using RNeasy Mini Plus kit (Qiagen), followed by DNase I treatment on the column, as per the manufacturer's recommendations. Two and a half micrograms of total RNA were reverse transcribed into cDNA using the Superscript III First-Strand Reverse Transcription System (Thermo Fisher Scientific). Real-time quantitative PCR (RT-qPCR) was performed using pre-validated FAM-MGB TaqMan probes (Thermo Fisher Scientific) and the TaqMan universal master mix II without UNG (Thermo Fisher Scientific) on a CFX Connect Real Time PCR detection system (Bio-Rad), with the following cycling parameters: 94° C. for 3 min, followed by 40 cycles of 94° C. for 30 s and 68° C. for 1 min. Amplification and denaturation curves for all probes were analyzed to verify amplification of just one amplicon. All RT-qPCR analyses were conducted using RNA extracted from at least 3 independent biological samples per subject/condition, and normalized to the following endogenous control genes (TBP, ACTB, and GAPDH). Relative expression was calculated using the traditional ΔΔCt method.
(§1) Wnt signaling manipulation. For manipulating the Wnt/β-catenin signaling pathway in NPCs, 200,000 cells were seeded on a 6-well plate, followed by treatment with specific agonist CHIR99021 (1 μM) for 4 days. Controls were treated with DMSO (CHIR diluent) at the same concentration and for the same duration. […] In all cases, treated cells were assayed to measure activity of the Wnt pathway via transfection with the TOP-Flash plasmids described herein.
A general note: In qPCR the cycle at which signal appears reflects the starting amount.

Test [2] concerns NPCs. Nature of the test: p16INK4a+ (senescent) cells in NPCs treated with CHIR99021. The settings on record: PTHS NPCs. As to the method:
For immunofluorescence labeling of NPCs, these cells were seeded at a density of 50,000 cells per well of a LabTek II 8-well chambered slide. When cells reached 50% confluency, they were fixed and processed for immunostaining in the same manner as described for iPSC colonies, with the following primary antibodies: rabbit anti-TCF4 (Abcam; ab217668; 1:1000); and chicken anti-vimentin (VIM) (Abcam; ab22651; 1:2000). NPCs were also stained to detect senescence associated P-galactosidase (SA-P-gal), using the CellEvent™ Senescence Green Detection Kit (Thermo Fisher Scientific; C10850) after antigen retrieval as described above. The same method described above for counting weakly and strongly stained SOX2+ cells after p16^INK4a co-staining was applied to NPCs.
Wnt signaling manipulation. For manipulating the Wnt/β-catenin signaling pathway in NPCs, 200,000 cells were seeded on a 6-well plate, followed by treatment with specific agonist CHIR99021 (1 μM) for 4 days. Controls were treated with DMSO (CHIR diluent) at the same concentration and for the same duration. […] In all cases, treated cells were assayed to measure activity of the Wnt pathway via transfection with the TOP-Flash plasmids described herein. For all experiments, 3 biological replicates were used per subject line, and similar results were obtained in at least 3 independent experiments.

In test [3] the test system is NPCs. In words: NPC proliferation (live cell count, EdU) after Wnt signaling manipulation. As to the method:
Proliferation and apoptosis assays.
as §1

Test [4] deals with Wnt/β-catenin signaling pathway. Nature of the test: TOP-Flash luciferase reporter Wnt functional assay in NPCs. The settings on record: PTHS NPCs; CHIR99021 (FIG. 16D). From the text:
TOP-Flash luciferase reporter Wnt functional assay. For assessing levels of Wnt signaling, 70% confluent cultures of NPCs in 24-well plates (with Neural Progenitor Medium from StemCell Technologies) were transfected with the M50 Super 8×TOPFlash plasmid (Addgene #12456; [http:/]/n2t.net/addgene:12456; RRID:Addgene_12456; referred to as TOP-Flash luciferase reporter plasmid), which is used to assess β-catenin-mediated transcriptional activation. This plasmid contains a minimal TA viral promoter driving the expression of a firefly luciferase gene preceded by seven binding sites ([…]; SEQ ID NO:1) for TCF/LEF (Veeman et al., 2003), not to be confused with TCF4. Control NPCs were transfected with M51 Super8×TOPflash plasmids, which have mutant TCF/LEF binding sites (Addgene plasmid #12457; [http:/]/n2t.net/addgene:12457; RRID:Addgene_12457).
Transfection was performed using the Amaxa Nucleofaction Mouse Neural Stem Cell Nucleofector kit for NPCs (Lonza), using the manufacturer's recommendations. After 24 h, medium was replenished and the luciferase assay was performed using the Pierce Firefly Luciferase Flash Assay Kit (Thermo Fisher Scientific) on a sample of 50,000 cells, using a Synergy microplate reader (BioTek Instruments). […] Activity levels were expressed as arbitrary units normalized against the mean activity in the respective controls. […]

Where [5] appears, read: PTHS NPCs in 2D culture, CHIR (FIG. 16K).

Molecules are shown by their SMILES.

Regarding `Cc1c[nH]c(-c2cnc(NCCNc3ccc(C#N)cn3)nc2-c2ccc(Cl)cc2Cl)n1` [CHIR99021], in test [1] (NPCs, CHIR99021 (FIG. 16N)), the PCDH15 expression entry is given as “further reduces its expression”. In test [1] (setting [5]), the “expression of TCF4” value was “increased” and the “expression of TCF4 downstream targets (GADD45G)” value is listed as “increased”. Besides, in test [1] (PTHS NPCs, CHIR99021 (FIG. 9J)), the “expression of pro-proliferative gene HES1” value is “increased the expression”, the “expression of proneural gene ASCL1” value is listed as “increased the expression” and the “expression of proneural gene NEUROD1” value is “increased the expression”. Further, the SOX3 expression entry in test [1] (PTHS progenitors, CHIR99021 (FIG. 10F)) is “increased SOX3 expression”. For the same molecule, in test [2], the “percentage of p16INK4a senescent cells” value is on record as “decreased the percentage”. Further, the proliferation rates result in test [3] (PTHS NPCs, CHIR99021 1 μM, 4 days (FIGS. 9G-H)) is given as “rescued the proliferation rates”. Also, the proliferation entry in test [3] (parent NPCs in 2D culture, CHIR (FIGS. 9G-H)) was “does not lead to increased proliferation”. Also, in test [4], the “Wnt signaling activity (TOP-Flash)” value is “increased”.
